Measured values: the supplement of paper PMC11061612

Legend:
Trametinib = compound: CC(=O)Nc1cccc(-n2c(=O)n(C3CC3)c(=O)c3c(Nc4ccc(I)cc4F)n(C)c(=O)c(C)c32)c1 [Trametinib]; conditions: max 1 µM
In short: (§1)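 Cancer cell lines were plated in 1536-well plates in 7.5 μl of DMEM/F12 or RPMI with 10% FBS and kept 24 hours at 37°C and 5% CO2 before 72 hours of dosing, with final DMSO typically 0.2%. CellTiter-Glo 2.0 luminescence measured viability, scaled between blank-well and DMSO-well means. Dose responses were fitted to a two-parameter logistic curve with a non-linear mixed effects model. This fit gives the single-agent IC50.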

Crizotinib = compound: C[C@@H](Oc1cc(-c2cnn(C3CCNCC3)c2)cnc1N)c1c(Cl)ccc(F)c1Cl [Crizotinib]; conditions: max 10 µM
In short: as §1

SN-38 = compound: CCc1c2c(nc3ccc(O)cc13)-c1cc3c(c(=O)n1C2)COC(=O)[C@]3(O)CC [SN-38]; conditions: max 0.3 µM
In short: as §1

Prexasertib = compound: COc1cccc(OCCCN)c1-c1cc(Nc2cnc(C#N)cn2)n[nH]1 [Prexasertib]; conditions: max 1 µM
In short: as §1

Savolitinib = compound: C[C@@H](c1ccc2nccn2c1)n1nnc2ncc(-c3cnn(C)c3)nc21 [Savolitinib]; conditions: max 1 µM
In short: as §1

Lapatinib = compound: CS(=O)(=O)CCNCc1ccc(-c2ccc3ncnc(Nc4ccc(OCc5cccc(F)c5)c(Cl)c4)c3c2)o1 [Lapatinib]; conditions: max 10 µM
In short: as §1

Gefitinib = compound: COc1cc2ncnc(Nc3ccc(F)c(Cl)c3)c2cc1OCCCN1CCOCC1 [Gefitinib]; conditions: max 10 µM
In short: as §1

Venetoclax = compound: CC1(C)CCC(CN2CCN(c3ccc(C(=O)NS(=O)(=O)c4ccc(NCC5CCOCC5)c([N+](=O)[O-])c4)c(Oc4cnc5[nH]ccc5c4)c3)CC2)=C(c2ccc(Cl)cc2)C1 [Venetoclax]; conditions: max 1 µM
In short: as §1

AZD1775 = compound: C=CCn1c(=O)c2cnc(Nc3ccc(N4CCN(C)CC4)cc3)nc2n1-c1cccc(C(C)(C)O)n1 [AZD1775]; conditions: max 3 µM
In short: as §1

SG3199 = compound: CC1=CN2[C@@H](C1)C=NC3=CC(=C(C=C3C2=O)OC)OCCCCCOC4=C(C=C5C(=C4)N=C[C@@H]6CC(=CN6C5=O)C)OC [SG3199]; conditions: max 0.001 µM
In short: as §1

AZD6738 = compound: C[C@@H]1COCCN1C2=NC(=NC(=C2)C3(CC3)[S@](=N)(=O)C)C4=C5C=CNC5=NC=C4 [AZD6738]; conditions: max 10 µM
In short: as §1

Taselisib = compound: Cc1nc(-c2cn3c(n2)-c2ccc(-c4cnn(C(C)(C)C(N)=O)c4)cc2OCC3)n(C(C)C)n1 [Taselisib]; conditions: max 10 µM
In short: as §1

AZD1390 = compound: CC(C)n1c(=O)n(C)c2cnc3cc(F)c(-c4ccc(OCCCN5CCCCC5)nc4)cc3c21 [AZD1390]; conditions: max 0.3 µM
In short: as §1

Alisertib = compound: COc1cc(Nc2ncc3c(n2)-c2ccc(Cl)cc2C(c2c(F)cccc2OC)=NC3)ccc1C(=O)O [Alisertib]; conditions: max 10 µM
In short: as §1

AZD7648 = compound: Cc1cc2ncnn2cc1Nc1ncc2c(n1)n(C1CCOCC1)c(=O)n2C [AZD7648]; conditions: max 10 µM
In short: as §1

AZD5153 = compound: COc1nnc2ccc(N3CCC(c4ccc(OCCN5CCN(C)C(=O)[C@H]5C)cc4)CC3)nn12 [AZD5153]; conditions: max 1 µM
In short: as §1

AZD2811 = compound: CCN(CCO)CCCOc1ccc2c(Nc3cc(CC(=O)Nc4cccc(F)c4)[nH]n3)ncnc2c1 [AZD2811]; conditions: max 1 µM
In short: as §1

Dasatinib = compound: CC1=C(C(=CC=C1)Cl)NC(=O)C2=CN=C(S2)NC3=CC(=NC(=N3)C)N4CCN(CC4)CCO [Dasatinib]; conditions: max 2 µM
In short: as §1

Selumetinib = compound: Cn1cnc2c(F)c(Nc3ccc(Br)cc3Cl)c(C(=O)NOCCO)cc21 [Selumetinib]; conditions: max 10 µM
In short: as §1

Palbociclib = compound: CC(=O)c1c(C)c2cnc(Nc3ccc(N4CCNCC4)cn3)nc2n(C2CCCC2)c1=O [Palbociclib]; conditions: max 10 µM
In short: as §1

Capivasertib = compound: C1CN(CCC1(C(=O)N[C@@H](CCO)C2=CC=C(C=C2)Cl)N)C3=NC=NC4=C3C=CN4 [Capivasertib]; conditions: max 10 µM
In short: as §1

Olaparib = compound: O=C(c1cc(Cc2n[nH]c(=O)c3ccccc23)ccc1F)N1CCN(C(=O)C2CC2)CC1 [Olaparib]; conditions: max 10 µM
In short: as §1

AZD8186 = compound: C[C@@H](Nc1cc(F)cc(F)c1)c1cc(C(=O)N(C)C)cc2c(=O)cc(N3CCOCC3)oc12 [AZD8186]; conditions: max 3 µM
In short: as §1

Doxorubicin = compound: COc1cccc2c1C(=O)c1c(O)c3c(c(O)c1C2=O)C[C@@](O)(C(=O)CO)C[C@@H]3O[C@H]1C[C@H](N)[C@H](O)[C@H](C)O1 [Doxorubicin]; conditions: max 1 µM
In short: as §1

AZD0156 = compound: CN(C)CCCOc1ccc(-c2ccc3ncc4c(c3c2)n(C2CCOCC2)c(=O)n4C)cn1 [AZD0156]; conditions: max 3 µM
In short: as §1

AZD5991 = compound: Cc1c2c(nn1C)CSCc1cc(n(C)n1)CSc1cc(c3ccccc3c1)OCCCc1c(C(=O)O)n(C)c3c-2c(Cl)ccc13 [AZD5991]; conditions: max 1 µM
In short: as §1

AZD4320 = compound: CN(CC[C@H](CSC1=CC=CC=C1)NC2=C(C=C(C=C2)S(=O)(=O)NC(=O)C3=CC=C(C=C3)N4CCC(CC4)[C@H](C5=CC=CC=C5C6=CC=C(C=C6)Cl)O)S(=O)(=O)C(F)(F)F)CCO [AZD4320]; conditions: max 1 µM
In short: as §1

Row | Cell Line | IC50, cell viability 72 h (Trametinib) [nM] | IC50, cell viability 72 h (Crizotinib) [nM] | IC50, cell viability 72 h (SN-38) [nM] | IC50, cell viability 72 h (Prexasertib) [nM] | IC50, cell viability 72 h (Savolitinib) [nM] | IC50, cell viability 72 h (Lapatinib) [nM] | IC50, cell viability 72 h (Gefitinib) [nM] | IC50, cell viability 72 h (Venetoclax) [nM] | IC50, cell viability 72 h (AZD1775) [nM] | IC50, cell viability 72 h (SG3199) [nM] | IC50, cell viability 72 h (AZD6738) [nM] | IC50, cell viability 72 h (Taselisib) [nM] | IC50, cell viability 72 h (AZD1390) [nM] | IC50, cell viability 72 h (Alisertib) [nM] | IC50, cell viability 72 h (AZD7648) [nM] | IC50, cell viability 72 h (AZD5153) [nM] | IC50, cell viability 72 h (AZD2811) [nM] | IC50, cell viability 72 h (Dasatinib) [nM] | IC50, cell viability 72 h (Selumetinib) [nM] | IC50, cell viability 72 h (Palbociclib) [nM] | IC50, cell viability 72 h (Capivasertib) [nM] | IC50, cell viability 72 h (Olaparib) [nM] | IC50, cell viability 72 h (AZD8186) [nM] | IC50, cell viability 72 h (Doxorubicin) [nM] | IC50, cell viability 72 h (AZD0156) [nM] | IC50, cell viability 72 h (AZD5991) [nM] | IC50, cell viability 72 h (AZD4320) [nM]
1 | MDST8 (Colorectal Carcinoma) | 19.9 | > 10000 | 15.6 | 25 | > 1000 | > 10000 | > 10000 | > 1000 | 875 | > 1 | 7450 | > 10000 | > 300 | > 10000 | > 10000 | > 1000 | > 1000 | > 2000 | 1150 | > 10000 | > 10000 | > 10000 | > 3000 | 224 | > 3000 | > 1000 | 890
2 | NCI-H1650 (Lung Adenocarcinoma) | > 1000 | > 10000 | > 300 | 472 | > 1000 | > 10000 | > 10000 | > 1000 | > 3000 | > 1 | > 10000 | > 10000 | > 300 | > 10000 | > 10000 | > 1000 | > 1000 | > 2000 | > 10000 | > 10000 | > 10000 | > 10000 | > 3000 | > 1000 | > 3000 | > 1000 | > 1000
3 | NCI-H1693 (Lung Adenocarcinoma) | > 1000 | > 10000 | 87.2 | > 1000 | > 1000 | > 10000 | > 10000 | > 1000 | > 3000 | > 1 | > 10000 | > 10000 | > 300 | > 10000 | > 10000 | > 1000 | > 1000 | > 2000 | > 10000 | > 10000 | > 10000 | > 10000 | > 3000 | > 1000 | > 3000 | > 1000 | > 1000
4 | NCI-H2141 (Small Cell Lung Carcinoma) | > 1000 | > 10000 | > 300 | 458 | > 1000 | > 10000 | > 10000 | > 1000 | 2200 | > 1 | > 10000 | > 10000 | > 300 | > 10000 | > 10000 | > 1000 | > 1000 | > 2000 | > 10000 | > 10000 | > 10000 | > 10000 | > 3000 | > 1000 | > 3000 | > 1000 | 307
